How the values were obtained:
Settings in all cases: 48 h
[1] = test system: CU-ACC1; assay: AC50 viability; higher = less potent
Outline: (§1)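 Cells from three adrenocortical carcinoma lines were seeded at 500–1,000 cells/well in 5 µL medium in 1,536-well plates. Each library compound was added as 23 nL at 11 concentrations, and after 48 h CellTiter-Glo was added for 15 minutes at room temperature before reading luminescence. Plate-wise normalisation to vehicle and empty-well controls preceded curve fitting. AC50 and area under the curve were calculated only for inhibitory or non-responding curve classes.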

[2] = test system: CU-ACC2; assay: AC50 viability; higher = less potent
Outline: as §1

[3] = test system: NCI-H295R; assay: AC50 viability; higher = less potent
Outline: as §1

[4] = test system: CU-ACC1; assay: area under concentration-response curve (viability) (AUC (a.u.)); higher = less active
Outline: as §1

[5] = test system: CU-ACC2; assay: as above
Outline: as §1

[6] = test system: NCI-H295R; assay: as above
Outline: as §1

Structure (SMILES)	AC50 viability [1]	AC50 viability [2]	AC50 viability [3]	area under concentration-response curve [4]	area under concentration-response curve [5]	area under concentration-response curve [6]
Cc1cccc(Nc2nc(-c3ccncc3)cs2)c1	20.9 µM	16.6 µM	14.8 µM	497	549	531
Fc1cccc(-n2cnc3c(NCc4nc5ccc(F)c(F)c5[nH]4)nc(N4CCOCC4)nc32)c1	0.661 µM	0.742 µM	1.05 µM	367	371	394
Cc1ncc(-c2ccnc(Nc3ccc([S+](C)(=O)[O-])cc3)n2)n1C(C)C	0.742 µM	0.332 µM	2.95 µM	286	236	307
CC(C)c1ccc(Cn2ccc3c4c(N)nc(NC5CC5)nc4ccc32)cc1	7.42 µM	2.95 µM	2.95 µM	327	399	335
Cc1nn(Cc2ccccc2Cl)c(C)c1CN(C)CC(O)COc1ccc(Cl)cc1 (configuration not stated)	8.33 µM	7.42 µM	8.33 µM	418	507	482
C=C1/C(=C\C=C2/CCC[C@]3(C)[C@@H]([C@H](C)/C=C/[C@H](C)C(C)C)CC[C@@H]23)C[C@@H](O)C[C@@H]1O	6.61 µM	7.42 µM	7.42 µM	381	400	372
C=CC(=O)Nc1cccc(Oc2nc(Nc3ccc(N4CCN(C)CC4)cc3OC)ncc2Cl)c1	8.33 µM	7.42 µM	9.34 µM	442	526	502
CC(C)C1=N[N](C\2=C1C(=O)N\C(=N2)CC3=CC=C(OCCO)C=C3)C4=C(Cl)C=CC=C4Cl	0.0332 µM	0.0209 µM	0.0833 µM	241	183	289
Cc1ccc(C(=O)Nc2cccc(C(F)(F)F)c2)cc1-c1ccc2nc(NCCN3CCOCC3)ncc2c1	10.5 µM	18.6 µM	18.6 µM	481	576	546
C=CC(=O)Nc1ccc2ncnc(Nc3ccc(OCc4cccc(F)c4)c(Cl)c3)c2c1	20.9 µM	10.5 µM	10.5 µM	334	534	510
Cc1ccc(-c2ccc3ncc4c(c3n2)n(C2CCN(C(=O)[C@H](C)O)CC2)c(=O)n4C)cn1	0.263 µM	0.263 µM	0.295 µM	363	492	394
CN(C)Cc1c(C(=O)NCCOc2ccc(C(=O)NO)cc2)oc2ccccc12	1.48 µM	1.48 µM	1.32 µM	412	425	412
CCN(CC)Cc1ccc2cc(COC(=O)Nc3ccc(C(=O)NO)cc3)ccc2c1	3.72 µM	4.68 µM	9.34 µM	365	390	382
COc1ccc(-c2nc(N3CCOCC3)c3sc(CN(C)c4ncc(C(=O)NO)cn4)cc3n2)cn1	0.0417 µM	0.186 µM	0.059 µM	211	281	285
C[C@H](NC(=O)C(=O)Nc1ccccc1C(C)(C)C)C(=O)N[C@@H](CC(=O)O)C(=O)COc1c(F)c(F)cc(F)c1F	1.66 µM	0.661 µM	1.05 µM	328	235	203
C[N]1N=C(C)C2=C1OC(=C(/C#N)C2C3=CC=C(C=C3)C(F)(F)F)/N (configuration not stated)	18.6 µM	18.6 µM	18.6 µM	460	422	479
CC[C@@]1(O)C[C@H](O[C@H]2C[C@H](N(C)C)[C@H](O[C@H]3C[C@H](O)[C@H](O[C@H]4CCC(=O)[C@H](C)O4)[C@H](C)O3)[C@H](C)O2)c2c(cc3c(c2O)C(=O)c2c(O)cccc2C3=O)[C@H]1C(=O)OC	23.5 µM	16.6 µM	16.6 µM	453	533	523
CC(C)C[C@@H](C=O)NC(=O)[C@H](CC(C)C)NC(=O)[C@H](CC(C)C)NC(=O)OCc1ccccc1	1.48 µM	0.934 µM	0.742 µM	374	409	407
Cc1ccc(NC(=O)c2ccc3c(c2)OCCO3)cc1NC(=O)c1ccc2nc(OCCN3CCCC3)ccc2c1	6.45 µM	0.456 µM	2.88 µM	303	373	398
CC1(C)OC/2=C(\[C@H](NCC3=CC=CC=C3)[C@@H]1O)C(=O)C4=CC=CC=C4C2=O	2.35 µM	18.6 µM	1.86 µM	381	368	403
CN(C)C/C=C/C(=O)Nc1ccc(C(=O)N2CCC[C@@H](Nc3ncc(Cl)c(-c4c[nH]c5ccccc45)n3)C2)cc1	5.25 µM	2.63 µM	14.8 µM	399	358	489
CCCCOc1c(C(=O)c2c(F)cc(C)cc2F)cnc2[nH]ncc12	1.48 µM	2.09 µM	2.35 µM	419	407	432
CC1=C2N=C([NH]C2=CC(=C1)N3CCOCC3)\C4=C(NC[C@@H](O)C5=CC=CC(=C5)Cl)\C=C/NC4=O	0.00331 µM	0.833 µM	0.468 µM	342	277	303
NC(=O)c1cnc(N[C@@H]2CCCC[C@@H]2N)nc1Nc1cccc(-n2nccn2)c1	23.5 µM	20.9 µM	20.9 µM	492	572	519
CNC(=O)c1ccccc1Sc1ccc2c(/C=C/c3ccccn3)n[nH]c2c1	37.2 µM	16.6 µM	3.72 µM	368	493	461
CNCCn1c(=O)c2cc(OC)c(OC)cc2c2cnc3cc4c(cc3c21)OCO4	0.0959 µM	0.135 µM	0.152 µM	422	537	553

Structure (SMILES)	AC50 viability [1]	AC50 viability [2]	AC50 viability [3]	area under concentration-response curve [4]	area under concentration-response curve [5]	area under concentration-response curve [6]
CC[S+](=O)([O-])c1cccc(-c2cc(C(=O)NC3CCN(C)CC3)c(C)c3[nH]c4ncc(C)cc4c23)c1	37.2 µM	10.5 µM	20.9 µM	500	543	545
c1ccc2c(CCNc3ccc(Nc4ccncc4)cc3)c[nH]c2c1	5.9 µM	10.5 µM	1.86 µM	363	374	400
CNCCCOc1cc(F)c(-c2c(Cl)nc3ncnn3c2N[C@@H](C)C(F)(F)F)c(F)c1	5.25 µM	10.5 µM	0.148 µM	456	403	397
CNc1nccc(-c2cccnc2Oc2cc(C(=O)Nc3cccc(C(F)(F)F)c3)ccc2C)n1	14.8 µM	18.6 µM	18.6 µM	461	494	465
CC(C)(O)c1cc2nc(-c3cnc(N)nc3)nc(N3CCOCC3)c2s1	1.32 µM	2.63 µM	1.05 µM	434	379	423
CN(Cc1ccc(/C=C/C(=O)NO)cc1)CC12CC3CC(CC(C3)C1)C2	1.05 µM	1.05 µM	1.66 µM	303	408	365
C[C@@H]1C[C@H]2[C@@H]3\C=C(C)/C4=C/C5=C(C[C@]4(C)[C@H]3[C@@H](O)C[C@]2(C)[C@@]1(O)C(=O)CO)C=N[N]5C6=CC=CC=C6	26.3 µM	23.5 µM	11.8 µM	435	563	474
CC[S+]([O-])(=O)NC1=CC(=C(OC2=C(F)C=C(F)C=C2)C=C1)\C3=C\N(C)C(=O)C4=C3C=C[NH]4	10.5 µM	13.2 µM	5.9 µM	416	493	463
Nc1ccc(/C=C/C(=O)NCc2cc3cc(-c4ccc(C(=O)N5CCC(F)(F)CC5)cc4)cc(-c4ccc(F)cc4)c3o2)cn1	2.09 µM	2.35 µM	3.32 µM	340	447	458
N/C(=N\C(=O)c1nc(Cl)c(N)nc1N)NCc1ccccc1	10.5 µM	8.33 µM	11.8 µM	322	370	396
O=C(NO)c1cnc(N2C[C@H]3C[C@@H]2CN3c2cc(C(F)(F)F)ccn2)nc1	7.42 µM	10.5 µM	1.66 µM	385	538	488
Cc1cc(Nc2cc(CN3CCOCC3)c3nc(C)c(Cc4ccc(Cl)cc4F)n3n2)[nH]n1	37.2 µM	18.6 µM	23.5 µM	440	439	420
C=CC(=O)N1CC/C(=C\c2ccc(F)c([N+](=O)[O-])c2)C(=O)/C(=C/c2ccc(F)c([N+](=O)[O-])c2)C1	0.263 µM	0.148 µM	0.209 µM	318	342	333
CCNC(=O)c1cc2c(-c3cc(OCCN4CCCC4)c(Cl)cc3Cl)nc(N)nc2s1	5.12 µM	5.74 µM	2.57 µM	431	445	433
C1=CC2=N/C(=N\c3ccc(OCCN4CCCC4)c(c3)COC/C=C/COCc3cccc2c3)N1	3.72 µM	2.63 µM	4.17 µM	387	436	387
CN1CCN(Cc2ccc(NC(=O)Nc3ccc(Oc4cc(NC(=O)C5CC5)ncn4)cc3)cc2C(F)(F)F)CC1	1.66 µM	0.468 µM	2.63 µM	426	337	428
N#C/C(=C1/Nc2ccccc2S1)c1ccnc(OCc2ccc(CN3CCOCC3)cc2)n1	4.68 µM	18.6 µM	11.8 µM	434	426	429
C=CCNc1c(O)cc2c(O)c1C[C@@H](C)C[C@H](OC)[C@H](O)[C@@H](C)/C=C(/C)[C@H](OC(N)=O)[C@@H](OC)/C=C\C=C(\C)C(=O)N2	2.95 µM	0.525 µM	14.8 µM	335	335	419
COC(C)(C)CCn1nc(Nc2c(C)cccc2C)c2cnc(Nc3ccc(OCCN4CCCC4)c(F)c3)nc21	14.8 µM	14.8 µM	11.8 µM	506	467	513
C=C1C(=O)O[C@@H]2[C@H]3O[C@]3(C)CC/C=C(\C)CC[C@@H]12	14.8 µM	7.42 µM	9.34 µM	375	522	497
Cc1cc(O)c(-c2ccc([C@@H](C)CN(C)C)cc2)c2c1[nH]c(=O)c1sccc12	0.235 µM	0.166 µM	0.295 µM	311	346	305
Cc1cc(F)c(C(=O)Nc2cccc(-c3nncn3C(C)C)n2)cc1-n1cnc(C2CC2)c1	18.6 µM	11.8 µM	18.6 µM	427	360	419
Cc1ccc(C(=O)Nc2cccc(C(F)(F)F)c2)cc1Nc1nc(-c2cccnc2)nc2c1cnn2C	23.5 µM	20.9 µM	18.6 µM	440	515	477
Cc1ccc(NC(=O)Nc2cc(C(F)(F)F)ccc2F)cc1Nc1ccc2c(c1)NC(=O)/C2=C\c1ccc[nH]1	14.8 µM	23.5 µM	13.2 µM	441	506	476
CC[C@H](CC#N)OC(=O)N[C@@H](C)c1cccc(NC(=O)Nc2ccc(-c3cnco3)c(OC)c2)c1	5.9 µM	5.9 µM	2.09 µM	456	530	489
COc1cc2nc(N3CCCN(C)CC3)nc(NC3CCN(Cc4ccccc4)CC3)c2cc1OC	13.2 µM	8.33 µM	9.34 µM	362	535	494
